Measured values as given in US12145923B2, “Tetrahydroisoquinoline compound, preparation method therefor, pharmaceutical composition containing same, and use thereof” (SHANGHAI INSTITUTE OF MATERIA MEDICA, CHINESE ACADEMY OF …, priority 2018, dated 2024).
Like-named read-outs stand apart in the source and are kept apart here.

Key:
[1] = target: Human PDE4D catalytic domain (Homo sapiens (Human), UniProt Q08499); assay: Scintillation Proximity Assay (SPA), inhibition of PDE4D catalytic domain activity; assay type: biochemical; conditions: for inhibition at 1 µM: read-out: PDE4D enzyme activity inhibition rate %
Chain of Human PDE4D catalytic domain (Q08499 386-715): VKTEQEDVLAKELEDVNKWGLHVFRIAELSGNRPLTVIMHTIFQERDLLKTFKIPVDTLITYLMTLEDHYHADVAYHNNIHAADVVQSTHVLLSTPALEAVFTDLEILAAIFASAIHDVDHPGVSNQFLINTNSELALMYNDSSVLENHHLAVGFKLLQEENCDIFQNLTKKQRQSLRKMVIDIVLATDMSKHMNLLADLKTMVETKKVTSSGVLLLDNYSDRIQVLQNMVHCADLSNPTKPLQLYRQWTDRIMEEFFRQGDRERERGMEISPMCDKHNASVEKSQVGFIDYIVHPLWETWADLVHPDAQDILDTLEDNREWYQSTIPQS

[2] = test system: TNF-α secretion in PBMC; assay: Inhibition of LPS-stimulated TNF-α secretion in PBMC (ELISA); assay type: cell-based; conditions: Homo sapiens, read-out: Inhibition rate %
[3] = test system: RAW 264.7 cells; assay: Cytotoxicity on RAW 264.7 cells (CCK-8 method); assay type: cell-based, mouse
[4] = test system: tumor necrosis factor-α secretion in RAW 264.7 cells; assay: Inhibition of LPS-stimulated tumor necrosis factor-α secretion in RAW 264.7 cells (ELISA); assay type: cell-based, mouse; conditions: Mus musculus, RAW264.7, 4 h, read-out: Tumor necrosis factor-α inhibition rate/%
Description: After the activation by bacterial lipopolysaccharide (LPS), various inflammatory mediators such as tumor necrosis factor-α will be released; Phosphodiesterase PDE4 is also expressed in macrophages, and the inhibitory activity of the compound on phosphodiesterase PDE4 can be reflected by detecting the secretion of tumor necrosis factor-α.
Under the stimulation of 1 μg/ml LPS (L5886, Sigma, St. Louis, MO, USA), the cells were cultured in a 37° C., 5% CO2 incubator for 4 h. The background control with no stimulant and stimulation control wells were also set, with a total volume of 200 μl. The culture supernatant was collected by centrifugation, and the secretion level of tumor necrosis factor-α in the culture supernatant was detected by enzyme-linked immunosorbent assay. The tumor necrosis factor-α detection kit was purchased from BD Pharmingen (San Diego, CA, USA).

[5] = PDE4D, unit given as mM, read-out: IC50

SMILES | inhibition at 1 µM ([1]; Compound concentration: 1 μM) [%] | IC50 [1, 5] [mM] | inhibition at 1 µM ([2]; TNF-α secretion in PBMC, 1 μM) [%] | inhibition at 10 µM ([2]; TNF-α secretion in PBMC, 10 μM) [%] | Cell survival rate/% ([3]; RAW 264.7, 0.5 μM) [%] | Cell survival rate/% ([3]; RAW 264.7, 5 μM) [%] | Cell survival rate/% ([3]; RAW 264.7, 50 μM) [%] | inhibition at 0.5 µM ([4]; RAW 264.7, 0.5 μM) [%] | inhibition at 5 µM ([4]; RAW 264.7, 5 μM) [%] | inhibition at 50 µM ([4]; RAW 264.7, 50 μM) [%] | IC50 [1] [mM] | inhibition at 1 µM [1] [%] | inhibition at 1 µM ([2]; PBMC) [%] | inhibition at 10 µM ([2]; PBMC) [%] | inhibition at 0.5 µM [4] [%] | inhibition at 5 µM [4] [%] | inhibition at 50 µM [4] [%]
COc1cc2c(cc1OC)C(CCc1c[nH]c3ccccc13)N(CCS(C)(=O)=O)CC2 (stereo not drawn) [Compound B8, 1-(2-(1H-indol-3-yl)ethyl)-6,7-dimethoxy-2-(2-(methylsulfonyl)ethyl)-1,2,3,4-tetrahydroisoquinoline] | 68.5 | 0.00057 | 31.6 | 77.8 | 113.4 | 100.7 | 100.5 | 33.6 | 36.1 | 31.8 | – | – | – | – | – | – | –
COc1cc2c(cc1OC)[C@H](CCc1c[nH]c3ccccc13)N(C(=O)C(F)(F)F)CC2 [(S)-B10, (S)-1-(1-(2-(1H-indol-3-yl)ethyl)-6,7-dimethoxy-3,4-dihydroisoquinoline-2(1H)-yl)-2,2,2-trifluoroethane-1-one] | 29.5 | – | 19.9 | 59.6 | 89.2 | 84.9 | 93.8 | -3 | -27.9 | 33.7 | – | – | – | – | – | – | –
CCOc1cc2c(cc1OC)CCN(C(=O)COC)[C@H]2CCc1c[nH]c2ccccc12 [(S)-B12, (S)-1-(1-(2-(1H-indol-3-yl)ethyl)-7-ethoxy-6-methoxy-3,4-dihydroisoquinoline-2(1H)-yl)-2-methoxyethane-1-one] | 92.2 | 0.00025 | 44.2 | 80.7 | 83.8 | 95.3 | 75.2 | -12.7 | 6.8 | 52.4 | – | – | – | – | – | – | –
COc1cc2c(cc1OC1CCCC1)C(CCc1c[nH]c3ccc(Br)cc13)N(C=O)CC2 (stereo not drawn) [Compound C1, 1-(2-(5-bromo-1H-indol-3-yl)ethyl)-7-(cyclopentyloxy)-6-methoxy-3,4-dihydroisoquinoline-2(1H)-formaldehyde] | – | – | – | – | 100.9 | 125.1 | 110.5 | – | – | – | 0.0015 | 26.4 | 27.1 | 72.4 | 2.8 | -5.2 | 33.7
COc1cc2c(cc1OC)C(CCc1c[nH]c3ccccc13)N(C(=O)C1CCOCC1)CC2 (stereo not drawn) [Compound B3, (1-(2-(1H-indol-3-yl)ethyl)-6,7-dimethoxy-3,4-dihydroisoquinoline-2(1H)-yl)(tetrahydro-2H-pyran-4-yl)ketone] | 16.4 | – | 33.3 | 60.2 | 97.7 | 113.9 | 79.6 | 4.4 | 10.8 | 62.5 | – | – | – | – | – | – | –
COC(=O)CN1CCc2cc(OC)c(OC)cc2C1CCc1c[nH]c2ccccc12 (stereo not drawn) [Compound B5, methyl-2-(1-(2-(1H-indol-3-yl)ethyl)-6,7-dimethoxy-3,4-dihydroisoquinoline-2(1H)-yl) acetate] | – | – | – | – | 86 | 88.2 | 103.8 | – | – | – | – | 39.1 | 21.7 | 55.2 | -2.1 | 20 | 47.9
COc1cc2c(cc1OC)C(CCc1c[nH]c3ccccc13)N(C(=O)c1ccncc1)CC2 (stereo not drawn) [Compound B1] | 30.7 | – | 39.8 | 58.5 | 78 | 74.9 | 78.8 | -2.4 | -17.8 | 67.9 | – | – | – | – | – | – | –
